{"source": "patent US20090311237A1", "about": "“Combination therapy using a soluble hyaluronidase and a bisphosphonate” (priority 2008, published 2009)", "assay": "Pharmacokinetics of ZA in pig serum after IV or SC infusion with or without rHuPH20 (LC-MS-MS, non-compartmental analysis)", "format": "in vivo", "conditions": "female, Yorkshire, pig, serum, subcutaneous, […], ZA […], read-out: Zoledronic Acid Serum Concentration", "method": "A pharmacokinetic study of zoledronic acid (ZA) co-administered with rHuPH20 in female Yorkshire swines was conducted. The primary objective of the study was to determine the bioavailability of zoledronic acid dosed via subcutaneous (SC) co-administration with human recombinant hyaluronidase PH20 (rHuPH20) and to compare the overall exposure to an equivalent IV dose.\nAnimals in Study Group 1 were dosed with 0.15 mg/kg ZA given via a 20-minute IV infusion. Animals in Study Groups 2 and 3 were dosed subcutaneously (SC) with 0.15 mg/kg ZA without and with rHuPH20, respectively, in different SC delivery volumes.\nFollowing ZA dose administration, serial blood samples were collected via vascular access ports (VAPs) for serum preparation and determination of ZA concentrations. Blood collection times were at 1, 3, 5, 10, 15, 20, 30, 45, and 60 minutes, and at 1.5, 2, 3, 4, 6, 8, 10, 24, 48, and 72 hours post dose. Urine samples were also collected to compare excretion characteristics between IV and SC routes of administration. Collection times for urine were at 15 minutes before dosing (−15 min.), continuously from dose initiation to 2 hours post dose, and at 4, 6, 8, and 24 hours post dose thereafter.\nSerum concentration of ZA was determined using a qualified LC-MS-MS assay after derivatization with diazomethane (Zhu, L S et al. (2006) Rapid Commun. Mass Spectrom. 20: 3421-3426; “Qualification Data of An LC-MS/MS Method for the Determination of Zoledronate in Porcine Serum”, MDS Pharma Services Study No. AA43671-01, Report Date 14 Sep. 2007). The assay range was from 2.0 to 400 ng/mL with a lower limit of quantitation (LLOQ) at 2.0 ng/mL. Urine concentration of ZA was determined by a similar well qualified LC-MS-MS method (“Qualification Data of An LC-MS/MS Method for the Determination of Zoledronate in Porcine Urine”, MDS Pharma Services Study No. AA43671-02, Report Date 14 Sep. 2007) with an assay LLOQ at 10 ng/mL.\nPharmacokinetic (PK) analyses of ZA serum concentration versus time data were conducted using WinNonlin v5.1 (Pharsight, Mountain View, Calif.). Non-compartmental analysis was used for derivation of primary and secondary pharmacokinetic (PK) parameters. AUC, Cmax, and Tmax were compared between dose routes, between co-administration with rHuPH20, and with dose of rHuPH20.", "note": "Read-outs that look alike come from different tables or passages of the source.", "data": [{"molecule": "O=P(O)(O)C(O)(Cn1ccnc1)P(=O)(O)O", "note": "[ZA, 1-hydroxy-2-(1H-imidazol-1-yl)ethylidene-1,1-bisphosphonic acid]", "values": [{"measurement": "concentration at 1 h", "setting": "Time 1 h, pig ID 70, Study Group 2, SC, 10 mL, 1.6 min, rHuPH20 0 U/mL", "value": 101, "unit": "ng/mL"}, {"measurement": "concentration at 2 h", "setting": "Time 2 h, pig ID 59, Study Group 2, SC, 100 mL, 16 min, rHuPH20 0 U/mL", "value": 22.9, "unit": "ng/mL"}, {"measurement": "concentration at 2 h", "setting": "Time 2 h, pig ID 60, Study Group 2, SC, 100 mL, 16 min, rHuPH20 0 U/mL", "value": 75.8, "unit": "ng/mL"}, {"measurement": "concentration at 2 h", "setting": "Time 2 h, pig ID 62, Study Group 2, SC, 50 mL, 8 min, rHuPH20 0 U/mL", "value": 28.4, "unit": "ng/mL"}, {"measurement": "concentration at 2 h", "setting": "Time 2 h, pig ID 69, Study Group 2, SC, 25 mL, 4 min, rHuPH20 0 U/mL", "value": 31.8, "unit": "ng/mL"}, {"measurement": "concentration at 2 h", "setting": "Time 2 h, pig ID 70, Study Group 2, SC, 10 mL, 1.6 min, rHuPH20 0 U/mL", "value": 37.7, "unit": "ng/mL"}, {"measurement": "concentration at 3 h", "setting": "Time 3 h, pig ID 59, Study Group 2, SC, 100 mL, 16 min, rHuPH20 0 U/mL", "value": 13.3, "unit": "ng/mL"}, {"measurement": "concentration at 3 h", "setting": "Time 3 h, pig ID 60, Study Group 2, SC, 100 mL, 16 min, rHuPH20 0 U/mL", "value": 27.5, "unit": "ng/mL"}, {"measurement": "concentration at 3 h", "setting": "Time 3 h, pig ID 62, Study Group 2, SC, 50 mL, 8 min, rHuPH20 0 U/mL", "value": 13.5, "unit": "ng/mL"}, {"measurement": "concentration at 3 h", "setting": "Time 3 h, pig ID 69, Study Group 2, SC, 25 mL, 4 min, rHuPH20 0 U/mL", "value": 20.5, "unit": "ng/mL"}, {"measurement": "concentration at 3 h", "setting": "Time 3 h, pig ID 70, Study Group 2, SC, 10 mL, 1.6 min, rHuPH20 0 U/mL", "value": 22.2, "unit": "ng/mL"}, {"measurement": "concentration at 4 h", "setting": "Time 4 h, pig ID 59, Study Group 2, SC, 100 mL, 16 min, rHuPH20 0 U/mL", "value": 6.48, "unit": "ng/mL"}, {"measurement": "concentration at 4 h", "setting": "Time 4 h, pig ID 60, Study Group 2, SC, 100 mL, 16 min, rHuPH20 0 U/mL", "value": 9.03, "unit": "ng/mL"}, {"measurement": "concentration at 4 h", "setting": "Time 4 h, pig ID 62, Study Group 2, SC, 50 mL, 8 min, rHuPH20 0 U/mL", "value": 4.74, "unit": "ng/mL"}, {"measurement": "concentration at 4 h", "setting": "Time 4 h, pig ID 69, Study Group 2, SC, 25 mL, 4 min, rHuPH20 0 U/mL", "value": 8.11, "unit": "ng/mL"}, {"measurement": "concentration at 4 h", "setting": "Time 4 h, pig ID 70, Study Group 2, SC, 10 mL, 1.6 min, rHuPH20 0 U/mL", "value": 9.47, "unit": "ng/mL"}, {"measurement": "concentration at 6 h", "setting": "Time 6 h, pig ID 60, Study Group 2, SC, 100 mL, 16 min, rHuPH20 0 U/mL", "value": 3.6, "unit": "ng/mL"}, {"measurement": "concentration at 6 h", "setting": "Time 6 h, pig ID 62, Study Group 2, SC, 50 mL, 8 min, rHuPH20 0 U/mL", "value": 2.99, "unit": "ng/mL"}, {"measurement": "concentration at 6 h", "setting": "Time 6 h, pig ID 69, Study Group 2, SC, 25 mL, 4 min, rHuPH20 0 U/mL", "value": 2.92, "unit": "ng/mL"}, {"measurement": "concentration at 6 h", "setting": "Time 6 h, pig ID 70, Study Group 2, SC, 10 mL, 1.6 min, rHuPH20 0 U/mL", "value": 4.09, "unit": "ng/mL"}, {"measurement": "concentration at 8 h", "setting": "Time 8 h, pig ID 70, Study Group 2, SC, 10 mL, 1.6 min, rHuPH20 0 U/mL", "value": 2.07, "unit": "ng/mL"}, {"measurement": "concentration at […]", "setting": "pig 56, Study Group 3, SC, rHuPH20 10000 U/mL, 25 mL over 4 min, time […]", "value": 29.2, "unit": "ng/mL"}, {"measurement": "concentration at 2 h", "setting": "pig 58, Study Group 3, SC, rHuPH20 10000 U/mL, 50 mL over 8 min, time 2 h", "value": 40.1, "unit": "ng/mL"}, {"measurement": "concentration at 3 h", "setting": "pig 58, Study Group 3, SC, rHuPH20 10000 U/mL, 50 mL over 8 min, time 3 h", "value": 10.8, "unit": "ng/mL"}, {"measurement": "concentration at 4 h", "setting": "pig 58, Study Group 3, SC, rHuPH20 10000 U/mL, 50 mL over 8 min, time 4 h", "value": 8.27, "unit": "ng/mL"}, {"measurement": "concentration at 6 h", "setting": "pig 58, Study Group 3, SC, rHuPH20 10000 U/mL, 50 mL over 8 min, time 6 h", "value": 2.65, "unit": "ng/mL"}, {"measurement": "concentration at 0.05 h", "setting": "pig 64, Study Group 3, SC, rHuPH20 10000 U/mL, 100 mL over 16 min, time 0.05 h", "value": 57, "unit": "ng/mL"}, {"measurement": "concentration at 0.333 h", "setting": "pig 64, Study Group 3, SC, rHuPH20 10000 U/mL, 100 mL over 16 min, time 0.333 h", "value": 253, "unit": "ng/mL"}, {"measurement": "concentration at 0.5 h", "setting": "pig 64, Study Group 3, SC, rHuPH20 10000 U/mL, 100 mL over 16 min, time 0.5 h", "value": 197, "unit": "ng/mL"}, {"measurement": "concentration at 1 h", "setting": "pig 64, Study Group 3, SC, rHuPH20 10000 U/mL, 100 mL over 16 min, time 1 h", "value": 101, "unit": "ng/mL"}, {"measurement": "concentration at 2 h", "setting": "pig 64, Study Group 3, SC, rHuPH20 10000 U/mL, 100 mL over 16 min, time 2 h", "value": 50.9, "unit": "ng/mL"}, {"measurement": "concentration at 3 h", "setting": "pig 64, Study Group 3, SC, rHuPH20 10000 U/mL, 100 mL over 16 min, time 3 h", "value": 29.8, "unit": "ng/mL"}]}]}
